Measured values taken from patent publication US20050238724A1, “Pharmaceutical composition containing lamotrigine particles of defined morphology” (Teva Pharmaceutical Industries Ltd., priority 2002, published 2005).

Assays:
[1] = Particle diameter by laser diffraction (Malvern Mastersizer); type: physicochemical
Procedure: The “particle diameter” refers to the equivalent spherical diameter as determined by laser light scattering method. Particle diameter of lamotrigine was determined by laser diffraction. We determined the diameter of lamotrigine particles using a Malvern™ Mastersizer laser diffraction instrument. Samples of lamotrigine were suspended in hexane containing a surfactant (0.07% dioctyl sulfosuccinate sodium salt). The suspensions were mixed and then sonicated for 15 seconds to thoroughly disperse the lamotrigine particles. The dispersion was then recirculated in the flow cell of the Malvern Mastersizer for two minutes before particle diameter measurements were taken.

[2] = Specific surface area by gas adsorption, multipoint BET (Coulter SA3100); type: physicochemical; details: micronized particles; degassing 70° C., 30 minutes; 10 points
Description: Gas adsorption analysis is a preferred method for determining the surface area of a sample of lamotrigine for purposes of this invention since it provides a direct measurement of surface area. It is therefore considered to be more accurate than other methods such as electron microscopy and laser diffraction that rely upon a model to obtain a value for surface area (e.g. equivalent sphere model).
We measured specific particle surface area by gas adsorption using a Coulter™ SA3100 Series adsorption analyzer. The specific surface area of a sample of lamotrigine particles was calculated by the multipoint Brunauer, Emmet and Teller (BET) method. Brunauer, S., P. H. Emmett, E. Teller, J. Am. Chem. Soc., 1938, 60, 309-319. The calculations of the surface area of lamotrigine particles and its precise weight would yield specific surface area (usually expressed as square meters/gram). […] The volume of the manifold was measured with helium gas using a conventional technique. […] The instrument's software calculated the moles of adsorbed N2 (based upon inputted sample mass, manifold volume and sample tube void volume) for ten equilibrium pressures (Ps). […]
The specific surface area of the lamotrigine particles was measured with a Coulter SA 3100, using the multipoint BET technique. […] For the linearity, 10 points were measured, using high sensitivity.

[3] = initial particles before air jet milling

Nc1nnc(-c2cccc(Cl)c2Cl)c(N)n1 [Lamotrigine, 3,5-diamino-6-(2,3-dichlorophenyl)-1,2,4-triazine]
particle diameter, 50% of the particles equal to or less than [1, 3]: ≤ 250 μm
particle diameter, about 80% of the particles equal to or less than [1, 3]: ≤ 500 μm

Nc1nnc(-c2cccc(Cl)c2Cl)c(N)n1 [lamotrigine micronized particles, 3,5-diamino-6-(2,3-dichlorophenyl)-1,2,4-triazine]
diameter of all particles in the plurality ([1]; after micronization in air jet mill): less than 100 μm
specific surface area [2]: 3.1-3.3 square meters per gram
